Experiments:
BRD4 BD2 = target: T1, BRD4 BD2 (Homo sapiens, UniProt O60885); test: AlphaScreen binding assay, BRD4 Bromodomain 2
T1 construct: made in house
How it was run: (§1)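 An AlphaScreen competition format was used with His-BRD4 BD1 or BD2 and biotin-H4 K5/8/12/16-acetyl peptide, each at matched final levels of 50 nM (BD1) or 100 nM (BD2). Incubation in HEPES/NaCl buffer with 0.1% BSA and 0.01% Triton X-100 ran ≥1 h before IC50 determination.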

BRD4 BD1 = target: T2, BRD4 BD1 (Homo sapiens, UniProt O60885); test: AlphaScreen binding assay, BRD4 Bromodomain 1
T2 construct: made in house
How it was run: as §1

Row | SMILES | IC50 (BRD4 BD2) [nM] | IC50 (BRD4 BD1) [nM]
1 | CC(=O)N1c2ccccc2N(C(=O)C2CCCCC2)C[C@@H]1C [Example I-697] | > 500 | > 10000
2 | CC(C)OC(=O)N1C[C@H](C)N(C(C)C2CC2)c2ccc(-c3cnn(C4CNC4)c3)cc21 (stereo partly shown) [Example I-357] | 50 to 500 | 1000 to 10000
3 | CC(=O)N1c2ccc(-c3cn(C)nn3)cc2N(C(=O)C2CC2)C[C@@H]1C [Example I-453] | 50 to 500 | 1000 to 10000
4 | CC(=O)N1c2ccc(-c3cccc(C(=O)NC4CC4)c3)cc2N(C(=O)c2ccco2)C[C@@H]1C [Example I-802] | < 50 | 1000 to 10000
5 | C[C@H]1CN(C(=O)c2ccco2)c2cc(-c3ccc(S(C)(=O)=O)cc3)ccc2N1C(=O)CO [Example I-367] | > 500 | > 10000
6 | CC(=O)N1CCC[C@H](CN2C[C@H](C)N(C(C)=O)c3ccccc32)C1 [Example I-928] | > 500 | > 10000
7 | CC(=O)N1c2ccccc2N(C(=O)CC(C)C)C[C@@H]1C [Example I-708] | > 500 | > 10000
8 | CC(=O)N1c2ccc(-c3cnn(C4COC4)c3)cc2N(C(=O)CC(C)C)C[C@@H]1C [Example I-105, (S)-1-(4-acetyl-3-methyl-7-(1-(oxetan-3-yl)-1H-pyrazol-4-yl)-3,4-dihydroquinoxalin-1 (2H)-yl)-3-methylbutan-1-one] | 50 to 500 | > 10000
9 | CC(=O)N1c2ccc(-c3ccc(S(C)(=O)=O)cc3)cc2N(C(=O)C(C)(C)C)C[C@@H]1C [Example I-243] | > 500 | > 10000
10 | CC(=O)N1c2ccccc2N(C(=O)c2ccc(Cl)cc2)C[C@@H]1C [Example I-743] | > 500 | > 10000
11 | COc1cccc(S(=O)(=O)N2C[C@H](C)N(C(C)=O)c3ccccc32)c1 [Example I-945] | > 500 | > 10000
12 | CC(=O)N1c2ccccc2N(C(=O)c2cc3ccccc3n2C)C[C@@H]1C [Example I-748] | > 500 | > 10000
13 | CC(=O)N1c2ccccc2N(C(=O)CCN(C)C)C[C@@H]1C [Example I-693] | > 500 | > 10000
14 | CC(=O)N1c2ccc(-c3ccc4nn(C)cc4c3)cc2N(C(=O)c2ccco2)C[C@@H]1C [Example I-404] | 50 to 500 | 1000 to 10000
15 | CC(=O)N1c2ccc(-c3ccc(S(C)(=O)=O)cc3)cc2N(C(=O)c2ccc(S(=O)(=O)N(C)C)o2)C[C@@H]1C [Example I-983] | > 500 | > 10000
16 | CC(=O)N1c2ccccc2N(C(=O)CC2CCCC2)C[C@@H]1C [Example I-713] | > 500 | > 10000
17 | COc1cc(F)ccc1-c1ccc2c(c1)N(C(=O)c1ccco1)C[C@H](C)N2C(C)=O [Example I-826] | > 500 | > 10000
18 | CC(=O)N1c2ccc(-c3cnn(C4COC4)c3)cc2N(C(=O)OCC(F)F)C[C@@H]1C [Example I-84, (S)-2,2-difluoroethyl 4-acetyl-3-methyl-7-(1-(oxetan-3-yl)-1H-pyrazol-4-yl)-3,4-dihydroquinoxaline-1(2H)-carboxylate] | > 500 | 1000 to 10000
19 | CC(=O)Nc1cccc(C(=O)N2C[C@H](C)N(C(C)=O)c3ccc(-c4ccc(S(C)(=O)=O)cc4)cc32)c1 [Example I-889] | > 500 | > 10000

Row | SMILES | IC50 (BRD4 BD2) [nM] | IC50 (BRD4 BD1) [nM]
20 | CC(=O)N1c2ccccc2N(C(=O)c2cc3ccncc3s2)C[C@@H]1C [Example I-775] | > 500 | > 10000
21 | C[C@H]1CN(C(=O)C2CC2)c2cc(-c3cn(C)nn3)ccc2N1C(=O)C1CC1 [Example I-454] | 50 to 500 | 1000 to 10000
22 | CC(=O)N1c2ccccc2N(Cc2ccc3c(c2)OCO3)C[C@@H]1C [Example I-920] | > 500 | > 10000
23 | CC(=O)N1c2ccc(-c3ccc4c(c3)n(C)c(=O)n4C)cc2N(C(=O)c2ccco2)C[C@@H]1C [Example I-395] | < 50 | 100 to 1000
24 | CC(=O)N1c2ccccc2N(S(=O)(=O)c2ccc(C(F)(F)F)nc2)C[C@@H]1C [Example I-951] | > 500 | > 10000
25 | COC(=O)N1c2ccc(-c3ccc(C(=O)NCCN)cc3)cc2N(C(=O)C2CC2)C[C@@H]1C [Example I-463] | 50 to 500 | 1000 to 10000
26 | C[C@H]1CN(C(=O)C2CC2)c2cc(-c3ccc(S(=O)(=O)CCO)cc3)ccc2N1C(=O)C1CC1 [Example I-450] | 50 to 500 | 1000 to 10000
27 | CC(=O)N1c2ccc(-c3ccc(S(C)(=O)=O)cc3)cc2N(C(=O)Oc2ccc(F)cc2F)C[C@@H]1C [Example I-1010] | 50 to 500 | 1000 to 10000
28 | CC(=O)N1c2ccc(-c3cnn(CCC#N)c3)cc2N(C(=O)Oc2cccnc2)C[C@@H]1C [Example I-1288] | 50 to 500 | 1000 to 10000
29 | CC(=O)N1c2ccc(-c3ccc(C(=O)NCCN)cc3)cc2N(C(=O)C2CC2)C[C@@H]1C [Example I-451] | 50 to 500 | 100 to 1000
30 | COC(=O)N1c2ccc(-c3ccc(C(=O)NCc4ncco4)cc3)cc2N(C(=O)OC(C)C)C[C@@H]1C [Example I-583] | > 500 | 1000 to 10000
31 | COc1ncccc1C(=O)N1C[C@H](C)N(C(C)=O)c2ccccc21 [Example I-758] | > 500 | > 10000
32 | CNC(=O)N1C[C@H](C)N(C(C)=O)c2ccc(-c3ccc(S(C)(=O)=O)cc3)cc21 [Example I-253] | > 500 | > 10000
33 | CC(=O)N1c2ccc(-c3ccc(S(C)(=O)=O)cc3)cc2N(C(=O)Nc2ccc(Cl)cc2)C[C@@H]1C [Example I-975] | > 500 | > 10000
34 | CC(=O)N1c2ccc(C(=O)N3CCCC3)cc2N(C(=O)c2ccco2)C[C@@H]1C [Example I-101, (S)-1-(4-(furan-2-carbonyl)-2-methyl-6-(pyrrolidine-1-carbonyl)-3,4-dihydroquinoxalin-1(2H)-yl)ethanone] | > 500 | > 10000
35 | COC(=O)N1c2ccc(-c3cnn(C(C)(C)CO)c3)cc2N(C(=O)Oc2cccnc2)C[C@@H]1C [Example I-1285] | 50 to 500 | 1000 to 10000
36 | COc1ccc(S(=O)(=O)N2C[C@H](C)N(C(C)=O)c3ccccc32)c(C)c1 [Example I-960] | > 500 | > 10000
37 | CC(=O)N1c2ccc(-c3ccc(S(C)(=O)=O)cc3)cc2N(C(=O)N2CCCC2)C[C@@H]1C [Example I-100, (S)-1-(2-methyl-6-(4-(methylsulfonyl)phenyl)-4-(pyrrolidine-1-carbonyl)-3,4-dihydroquinoxalin-1(2H)-yl)ethanone] | 50 to 500 | > 10000
38 | COC(=O)N1c2ccc(-c3cnn(C4CCNCC4)c3)cc2N(C(=O)Oc2ccccn2)C[C@@H]1C [Example I-1333] | 50 to 500 | 1000 to 10000

Row | SMILES | IC50 (BRD4 BD2) [nM] | IC50 (BRD4 BD1) [nM]
39 | CC(=O)N1c2ccccc2N(S(=O)(=O)C2CC2)C[C@@H]1C [Example I-952] | > 500 | > 10000
40 | CC(=O)N1c2ccc(-c3cncnc3)cc2N(C(=O)c2ccco2)C[C@@H]1C [Example I-821] | 50 to 500 | > 10000
41 | CC(=O)N1c2ccccc2N(Cc2ccc(-c3ccccc3)cc2)C[C@@H]1C [Example I-916] | > 500 | > 10000
42 | COC(=O)N1c2ccc(-c3ccc(S(=O)(=O)CCN)cc3)cc2N(C(=O)C2CC2)C[C@@H]1C [Example I-461] | 50 to 500 | 1000 to 10000
43 | COc1ccccc1NC(=O)N1C[C@H](C)N(C(C)=O)c2ccc(-c3ccc(S(C)(=O)=O)cc3)cc21 [Example I-970] | 50 to 500 | 1000 to 10000
44 | COC(=O)N1c2ccc(-c3ccc(N4CCCS4(=O)=O)cc3)cc2N(C(=O)Oc2cccnc2)C[C@@H]1C [Example I-1287] | > 500 | 1000 to 10000
45 | CC(=O)N1c2ccc(-c3cc4ccccc4n3C)cc2N(C(=O)c2ccco2)C[C@@H]1C [Example I-839] | > 500 | > 10000
46 | CC(=O)N1c2ccc(-c3cnn(CCO)c3)cc2N(C(=O)C2CC2)C[C@@H]1C [Example I-342] | 50 to 500 | 1000 to 10000
47 | CC(=O)N1c2ccc(-c3cnn(Cc4noc(C)n4)c3)cc2N(C(=O)OC(C)C)C[C@@H]1C [Example I-138, (S)-isopropyl 4-acetyl-3-methyl-7-(1-((5-methyl-1,2,4-oxadiazol-3-yl)methyl)-1H-pyrazol-4-yl)-3,4-dihydroquinoxaline-1(2H)-carboxylate] | 50 to 500 | 100 to 1000
48 | CC(=O)N1c2ccc(-c3ccc(F)cc3)cc2N(C(=O)c2ccco2)C[C@@H]1C [Example I-818] | < 50 | 1000 to 10000
49 | CC(=O)N1c2ccccc2N(C(=O)CC2CCOCC2)C[C@@H]1C [Example I-706] | > 500 | > 10000
50 | CC(=O)N1c2ccc(-c3ccc(S(C)(=O)=O)cc3)cc2N(c2ccccn2)C[C@@H]1C [Example I-47, (S)-1-(2-methyl-6-(4-(methylsulfonyl)phenyl)-4-(pyridin-2-yl)-3,4-dihydroquinoxalin-1 (2H)-yl)ethan-1-one] | < 50 | 1000 to 10000
51 | COc1ccc(C(=O)N2C[C@H](C)N(C(C)=O)c3ccc(-c4ccc(S(C)(=O)=O)cc4)cc32)cc1 [Example I-877] | 50 to 500 | 1000 to 10000
52 | CC(=O)N1c2ccccc2N(C(=O)[C@H](C)c2ccccc2)C[C@@H]1C [Example I-715] | > 500 | > 10000
53 | CC(=O)N1c2ccccc2N(C(=O)c2ccc3cc[nH]c3c2)CC1C (stereo not shown) [Example I-760] | > 500 | > 10000
54 | CC(=O)N1c2ccccc2N(CC2CCOCC2)C[C@@H]1C [Example I-925] | > 500 | > 10000
55 | CC(=O)N1c2ccc(-c3ncccn3)cc2N(C(=O)c2ccco2)C[C@@H]1C [Example I-383] | 50 to 500 | 1000 to 10000
56 | C[C@H]1CN(C(=O)C2CC2)c2cc(-c3ccc(C(=O)NCCN)cc3)ccc2N1C(=O)C1CC1 [Example I-452] | 50 to 500 | 1000 to 10000
